Data published in patent publication US8097650B2, “Method of treating a condition associated with phosphorylation of TASK-1” (The Trustees of Columbia University In The City of New York, priority 2005, dated 2012).
Where two headings read alike, the source gives them in different places.

How the values were obtained:
quiescent myocytes = assay: Spontaneous activity in quiescent mouse ventricular myocytes (current clamp); type: cell-based
Experimental: (§1) Adult mice, 2-3 months old, were anesthetized with ketamine/xylazine and their hearts were removed according to protocols approved by the Columbia University-IACUC. Experiments were performed on single rod-shaped, quiescent ventricular myocytes dissociated using a standard retrograde collagenase perfusion (Kuznetsov V et al. (1995) Circ Res 76: 40-52) from hearts of mice that were either wild-type (WT), or PAFR knockouts (KO). Both WT and KO mice were bred on a C57/B16 background. The derivation of the KO mice has been described previously (Hoffman, B F et al.(1996) J Cardiovasc Electrophysiol 7:120-133).
(§2) Prior to electrophysiological measurements, cells were placed into the perfusion chamber and superfused at room temperature with Tyrode's buffer (in mM: NaCl, 140; KCl, 5.4; CaCl2 1; MgCl2, Hepes, 5; Glucose, 10; pH 7.4). The whole-cell patch clamp technique was used with pipettes having resistances of 1.5-3 MΩ (intracellular solution, in mM: aspartic acid, 130; KOH, 146; NaCl, 10; CaCl2, 2; EGTA, 5; Hepes, 10; MgATP, 2; pH 7.2). Solutions of C-PAF, the PAFR antagonist, CV-6209 (Biomol) and the PKC inhibitor, bisindolylmaleimide I (BIM I; Calbiochem) were prepared in water and diluted in Tyrode's before use. […] A custom-made fast perfusion device was used to exchange the solution around the cell within 1 s (DiFrancesco et al. (1986) J Physiol 377: 61-88).
(§3) Current and voltage protocols were generated using Clampex 7.0 software applied by means of an Axopatch 200B amplifier and a Digidata 1200 interface (Axon Instruments). During voltage clamp, steady state current traces were acquired at 500 Hz and final filtered at 10 Hz. During current clamp, membrane voltage was acquired at 5 KHz and filtered at 1 KHz. Ramp clamps were conducted by imposing a voltage ramp (14 mV/s) at a 500 Hz acquisition rate with 1 kHz filtering. Data were analyzed using pCLAMP 8.0 (Axon) and Origin 6.0 (Microcal) and are presented as mean±SEM. Steady-state current was determined by computer calculation of average current over a time period of at least 5 s. In all experiments, the n value indicates the number of myocytes studied, and represents pooled data from at least 2 (voltage clamp) or 3 (current clamp) animals. Student's t-test, one-way ANOVA and χ^2 tests were used; a value of p<0.05 was considered statistically significant. Records have been corrected for the junction potential, which was measured to be 9.8 mV.

murine TASK-1 [1] = conditions: typical, from Barbuti et al. 2002; cited from earlier work
[2] = system: adult rat ventricular myocytes; assay: Methanandamide-induced arrhythmias in cultured adult rat ventricular myocytes; type: cell-based; conditions: paced at 1 Hz
Experimental: FIG. 28. Methanandamide-induced arrhythmias are prevented by over expression of TREK-1 in cultured myocytes. The action potentials of cultured adult rat ventricular myocytes were recorded in current clamp mode during stimulation at 1 Hz.
The action potentials of cultured adult rat ventricular myocytes were recorded in current clamp mode during stimulation at 1 Hz.

TASK-1 [3] = target: T1, TASK-1 (Mus musculus, UniProt O35111); assay: Methanandamide-sensitive current in murine ventricular myocytes; type: cell-based
T1 construct: endogenous in cells; host or cells: adult mouse ventricular myocytes (C57/B16 background; WT or PAFR KO)
T1 sequence (O35111 whole entry): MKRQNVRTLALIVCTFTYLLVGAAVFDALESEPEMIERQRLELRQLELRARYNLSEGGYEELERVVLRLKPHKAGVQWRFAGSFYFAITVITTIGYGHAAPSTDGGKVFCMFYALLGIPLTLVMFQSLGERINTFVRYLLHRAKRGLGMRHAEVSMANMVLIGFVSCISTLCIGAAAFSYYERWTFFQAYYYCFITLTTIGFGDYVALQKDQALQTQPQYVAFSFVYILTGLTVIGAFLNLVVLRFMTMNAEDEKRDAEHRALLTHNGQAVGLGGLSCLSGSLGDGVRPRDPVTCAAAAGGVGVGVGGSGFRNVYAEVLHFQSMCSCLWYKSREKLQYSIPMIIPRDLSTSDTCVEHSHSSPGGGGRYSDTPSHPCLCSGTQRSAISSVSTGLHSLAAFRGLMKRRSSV
Text: as §2
Current and voltage protocols were generated using Clampex 7.0 software applied by means of an Axopatch 200B amplifier and a Digidata 1200 interface (Axon Instruments). During voltage clamp, steady state current traces were acquired at 500 Hz and final filtered at 10 Hz. […] Data were analyzed using pCLAMP 8.0 (Axon) and Origin 6.0 (Microcal) and are presented as mean±SEM. Steady-state current was determined by computer calculation of average current over a time period of at least 5 s. […] Records have been corrected for the junction potential, which was measured to be 9.8 mV.

TASK-1 [4] = target: T1, TASK-1; assay: C-PAF-sensitive steady-state current in murine ventricular myocytes (voltage clamp); type: cell-based
Experimental: as §1, §2, §3

human TASK-1 T383A = assay: Human TASK-1 T383A mutant current in CHO cells; type: cell-based; conditions: Tyrode's pH 8, ramp
Text: FIGS. 24A-24B. Mutations in human TASK-1 remove the sensitivity to C-PAF and PMA when the channel is expressed in CHO cells. Two human TASK-1 (hTASK-1) mutants in which either serine-358 was converted to alanine (S358A) or threonine-383 was converted to alanine (T383A) were generated and separately expressed in CHO cells. The C-PAF-sensitive (24A) and PMA-sensitive currents (24B) were obtained in Tyrode's at pH 8 using a ramp protocol in […] configuration, essentially as described in FIG. 15. […] However, the S358A channel was not inhibited in the presence of C-PAF (24A) and the T383A channel was not inhibited by PMA (24B).

[5] = system: murine TASK-1 T381A mutant; assay: T381A mutant TASK-1 current in CHO cells; type: cell-based, mouse
Experimental: pCMV-TASK1 (cTBAK) consists of a 1.9 kb sequence of murine TASK-1 inserted in pcDNA3.1 (a kind gift of Dr. Yoshihisa Kurachi, University of Osaka, Japan) and has been previously described (Leonoudakis D et al. (1998) J Neurosci 18: 868-877). pEGFP-C1 and pIRES-EGFP were purchased from Clontech. pTIE (TASK1-IRES-EGFP) was constructed by inserting a 1.9 kb EcoR1 fragment from pCMV-TASK1 into EcoR1 digested pIRES-EGFP. Site-directed mutagenesis was performed on pTIE using the Quik-Change kit (Stratagene) following the manufacturer's instructions. […]
Cells were either co-transfected with pCMV-TASK1 together with pEGFP-C1 (1 μg total, 3:1) or transfected with […] or T381A-pTIE (1 μg). 48 h after the transfection the cells were checked under the microscope for green fluorescence. […]
The myocyte suspension or the coverslip with CHO cells was placed into a perfusion chamber, mounted on the stage of an inverted microscope. […] Membrane potential and current were measured in the whole cell configuration using borosilicate glass pipettes with a tip resistance between […] and filled with a pipette solution containing (mM): aspartic acid, 130; KOH, 146; NaCl, 10; CaCl2, 2; EGTA, 5; HEPES, 10; MGATP, 2; pH 7.2. […] Myocytes treated with the peptides were monitored continuously beginning immediately after rupture to detect the occurrence of any arrhythmias during dialysis of the peptide. […]

murine TASK-1 [6] = assay: TASK-1 current expressed in CHO cells (whole-cell ramp clamp); type: cell-based, mouse
Experimental: The TASK-1 clone (provided by Professor Y. Kurachi, Osaka University) was co-transfected in CHO cells with CD8 plasmid using Lipofectamine Plus (Invitrogen) according to the manufacturer's instructions. 48 h later cells were transferred to the electrophysiology chamber and anti-CD8 coated beads (Dynal Biotech) were added to identify CD8 expressing cells. Expressing cells were voltage clamped using a ramp clamp (see below). CHO cells were used in these experiments, in part, because they express endogenous PAFR.
Chinese hamster ovary cells (CHO) were grown in F-12 medium supplemented with 10% fetal bovine serum. Twenty-four hours prior to transfection, cells were seeded into 6 well plates at 80-90% of confluence. Transfections were carried out with the GeneJammer transfection reagent (Stratagene) according to the manufacturer's instructions. Briefly, cells were washed with PBS and their medium replaced with supplemented F-12 medium (900 μl/well). For each well, GeneJammer (6 μl) was incubated with Opti-MEM (90 μl) followed by the addition of DNA (1 μg). This mixture was then added to the wells and 3 h later an additional 2 ml of supplemented F-12 medium was added. After incubating overnight, the cells were washed and their medium replaced.
Cells were either co-transfected with pCMV-TASK1 together with pEGFP-C1 (1 μg total, 3:1) or transfected with […] or T381A-pTIE (1 μg). 48 h after the transfection the cells were checked under the microscope for green fluorescence. Approximately 20% of the cells were positive for EGFP and these were then used for patch-clamp experiments. Due to the culture-to-culture variability in the expression of TASK-1 current, most comparisons were made on matched controls from the same transfection. Summary results were then obtained by pooling data from several different culture preparations.
The myocyte suspension or the coverslip with CHO cells was placed into a perfusion chamber, mounted on the stage of an inverted microscope. Unless otherwise indicated, CHO cells were superfused at room temperature with standard external Tyrode's buffer, containing (mM): NaCl, 140; KCl, 5.4; CaCl2, 1; MgCl2, 1; HEPES, 5; glucose, 10; adjusted to pH 7.4. Recordings were begun after the current reached a stable baseline (usually 3 to 4 min after initial cell rupture). In myocytes, TASK-1 current is small and exists in the presence of numerous larger K^+ currents. In order to increase the inward component of TASK-1 current and to block other potassium currents in myocytes, a modified high K^+ external solution (modified Tyrode's) was used to reduce outward rectification of TASK-1 current. The composition of this solution-was (in mM): NaCl, 100; KCl, 50; CaCl2, 1; MgCl2, 1; HEPES, 5; glucose, 10; tetraethylammonium (TEA), 1; CsCl, 5; adjusted to pH 7.4. Membrane potential and current were measured in the whole cell configuration using borosilicate glass pipettes with a tip resistance between […] and filled with a pipette solution containing (mM): aspartic acid, 130; KOH, 146; NaCl, 10; CaCl2, 2; EGTA, 5; HEPES, 10; MGATP, 2; pH 7.2. The stock solutions of C-PAF and of the PKC inhibitor, bisindolylmaleimide (BIM-I; Calbiochem), were prepared in water and diluted to the final concentrations in Tyrode's or modified Tyrode's, as appropriate. The PKC activator, PMA, was prepared in DMSO and then diluted in Tyrode's. […] Myocytes treated with the peptides were monitored continuously beginning immediately after rupture to detect the occurrence of any arrhythmias during dialysis of the peptide. Application of C-PAF to cells treated with the inhibitor peptide was started after the peptide had been permitted to dialyse into the cell (8-10 min after rupture for CHO or 10-12 min after rupture for myocytes).
The current and the voltage protocols were generated using Clampex 8.0 software applied by means of an Axopatch 200-B and a Digidata 1200 interface (Axon Instruments). […]

PKC = conditions: cited from earlier work

CCCCC/C=C\C/C=C\C/C=C\C/C=C\CCCC(=O)N[C@H](C)CO [methanandamide]
quiescent WT myocytes with spontaneous action potentials (quiescent myocytes; methanandamide 10 μM): 7 of 12
inhibition of TASK-1 current (murine TASK-1 [1]): approximately 60%
arrhythmias in control cells expressing only GFP [2]: typical arrythmias were observed
arrhythmias in myocytes overexpressing GFP and TREK-1 [2]: unable to induce arrhythmias
methanandamide-sensitive current with PAFR blocked or absent (TASK-1 [3]; methanandamide 10 μM, CV-6209 100 nM or PAFR KO myocytes): fully effective
effect on C-PAF-sensitive current (TASK-1 [4]; held at −10 mV, C-PAF 185 nM, Ba2+ 3 mM, Zn2+ 3 mM, lipids and ATFK 10 μM): inhibited

CCCCCCCCCCCCCC(=O)O[C@@H]1[C@@H](C)[C@@]2(O)[C@@H](C=C(CO)C[C@]3(O)C(=O)C(C)=C[C@@H]23)[C@@H]2C(C)(C)[C@]12OC(C)=O [PMA, phorbol 12-myristate 13-acetate]
inhibition of T383A channel (human TASK-1 T383A): not inhibited
sensitivity of mutant channel to PMA [5]: nor is it sensitive to PMA treatment
TASK-1 current density in the presence of drug (murine TASK-1 [6]; +30 mV, C-PAF 185 nM or PMA 100 nM, no peptide): 59.2±10.1 pA/pF
inhibition of TASK-1 current (murine TASK-1 [6]; +30 mV, PMA 100 nM (n=17), C-PAF 185 nM (n=20)): 19.8±2.7%
TASK-1 current density after drug (murine TASK-1 [6]; PKCε-inhibitor peptide 100 nM in pipette, C-PAF 185 nM or PMA 100 nM): 41.2±12.3 pA/pF
TASK-1 current density after drug (murine TASK-1 [6]; scrambled peptide 100 nM in pipette, PMA 100 nM): 36.6±6.2 pA/pF

CN(C)CCCn1cc(C2=C(c3c[nH]c4ccccc34)C(=O)NC2=O)c2ccccc21 [BIM I, bisindolylmaleimide I]
quiescent WT cells that failed to respond to C-PAF (quiescent myocytes; BIM I 100 nM, C-PAF 185 nM): 6 of 8
C-PAF-sensitive current in the presence of PKC inhibitor (murine TASK-1 [6]; BIM-I 100 nM, C-PAF 185 nM): no measurable C-PAF-sensitive current
Ki (PKC): 14 nM
effect on methanandamide-sensitive current (TASK-1 [3]; BIM I 100 nM, WT myocytes): significantly reduced
effect on C-PAF-sensitive current (TASK-1 [4]; BIM I 100 nM, −10 mV): completely blocked
effect of PKC inhibitor or inactive analogue on C-PAF-sensitive current (TASK-1 [4]; BIM I 40 and 100 nM, BIM V, −10 mV): blocked in a dose-dependent manner
